Assay [1] relates to P. falciparum (chloroquine-resistant). The assay can be described thus: P. falciparum culture growth by [3H]-hypoxanthine uptake, drugs singly or in combination, with isobolographic analysis. The assay is classed as cell-based, Plasmodium falciparum. The conditions noted are these: 48 hrs, starting parasitemia 2-3%. How it is done: (§1) Appropriate solvent controls were used. Parasite growth was measured by staining the slides with Giemsa as well as [α3H]-hypoxanthine uptake. In the latter case, the cultured cells were lysed with water and the parasites collected by filtration, washed and radioactivity measured. Adult f mice (40-50 g) were infected with P. berghei by intraperitoneal injection of an aliquot of infected mouse blood. After 24 hr, the animals were given a single injection of different amounts of artemisinin derivative at a dose of 5 mg/mouse. The oral feeding was repeated after 24 hr and 48 hr. Parasite count was measured in blood before and drug therapy at different time intervals using Giemsa to stain the slides. All the infected mice die in a span of 5-8 days and the efficacy of the drugs given singly or in combination was measured in terms of parasite clearance in blood and protection against mortality.
The potency of the combination was assessed by isobolographic characterization of the drug interactions. The additive or synergistic or antagonistic effects were assessed based on the following interaction index:
When I is less than 1 the drugs interact synergistically and the isobol bows below the line of additivity. When I is equal to 1 the isobol is coincident with the line of additivity and the interaction is additive. When I is greater than 1, the isobol bows above the line of additivity and the interaction is antagonistic. […] The interaction between curcumin and artemisinin is thus clearly synergistic.
P. falciparum (chloroquine-resistant) was maintained in culture using human O+ve red cells and serum by the candle jar method as per standard protocols. […] Appropriate solvent controls were used. Parasite growth was quantitatively measured using 3[H]-hypoxanthine uptake. The cultured cells were incubated for 48 hrs and then the parasites were collected by filtration after lysis of the cells. The filters were extensively washed and then radioactivity measured. […] The potency of the combination was assessed by isobolographic characterization of drug interactions.
The T values ranged from 0.7 to 0.85 in all combinations. The isobol bowling below the line of additivity and the T values being less than 1 indicate that the curcumin-artemisinin. Interaction is clearly synergistic

Assay [2] relates to P. falciparum. The conditions noted are these: culture of P. falciparum; cited from earlier work.
Assay [3] relates to P. berghei. The assay can be described thus: Protection of mice infected with P. berghei (mortality, parasite count in blood). The class given is in vivo. On the procedure: as §1
Striking results were obtained in terms of parasite clearance and protection against mortality. The experiments were carried out with 6 mice per batch and the experiments were repeated at least 3 times. The results presented in FIG. 3 represent those obtained in a typical experiment. The results obtained in the 2nd and 3rd experiments are identical in pattern. The average pattern obtained with the infected animals is as follows. All the infected animals die in about 5-8 days. […] A single injection of artemisinin derivative (α,β-arteether) at a dose of 500 μg/mouse results in death of animals in 10-12 days. […] Treatment with a single injection α,β-arteether at 750 μg and 1.5 mg results in death of animals between 20-26 days and 32-38 days respectively. […] The animals continue to live normally for several months. This picture is also supported by parasite load in blood (FIG. 4).
Methodology; Mice (−40 g) were infected ˜ with P. berghei by intraperitoneal infection. After 24 hrs, the animals received a single injection of different concentrations of a derivative of artemisinin (α,β-arteether) (500˜g to 1.5 mg) by the intramuscular route. […] The oral treatment was repeated after 24 hr and 48 hr. Blood smears were made from the mice at different day intervals and parasites stained with Giemsa. […] The experiments were repeated thrice with 6 mice in each group.

The test system of assay [4] is P. berghei. The settings on record: mice infected with P. berghei; cited from earlier work.

Entries after “also recorded” stand apart in the source; their conditions may differ.

With `C[C@@H]1CC[C@H]2[C@@H](C)C(=O)O[C@@H]3O[C@@]4(C)CC[C@@H]1[C@]32OO4` [artemisinin], the IC50 – broadly, the concentration at which inhibition is half-maximal – in assay [1] was ~0.055 µM; in assay [1] (Plasmodium falciparum), 0.045 to 0.055 µM.
`COc1cc(/C=C/C(=O)CC(=O)/C=C/c2ccc(O)c(OC)c2)ccc1O` [curcumin]: the antimalarial activity result in assay [2] and in assay [4] was “has antimalarial activity” in each case. Besides, the death of animals in assay [3] (curcumin alone, 3 day oral treatment (5 mg), untreated infected mice die in 5-8 days) is 10 to 12 days. The results for the IC50 in assay [1] and in assay [1] (Plasmodium falciparum) were ~15 µM and 15 to 17 µM, respectively.
For `CCO[C@H]1O[C@@H]2O[C@@]3(C)CC[C@H]4[C@H](C)CC[C@@H]([C@H]1C)[C@@]24OO3` [α,β-arteether], the death of animals in assay [3] (single injection 750 μg per mouse) was in the range of 20 to 26 days; in assay [3] (single injection 1.5 mg per mouse), 32 to 38 days. Also, the “parasite load in blood” value in assay [3] (single injection, Giemsa stained blood smears) is reported as “clears the parasites in blood initially, but there is recrudescence; also recorded: clears parasites in blood initially, but there was recrudescence”.
